Source: publication PMC3573960 (Molecular Neurodegeneration, 2012)

Test system: Tg2576 mice
Assay: Western blot of APP species and total Aβ in Tg2576 mouse brain
Format: in vivo
Details: 50 weeks
Procedure: For determination of APP α- and β-CTFs in Tg2576 mouse brain, hemisphere samples were thawed in ice-cold homogenization buffer (150 mg of tissue/mL, 50 mM Tris and 150 mM NaCl, pH 7.4) with protease inhibitor cocktail (Mini Complete™, Roche Applied Science, Penzberg, Germany). Homogenized samples were spun at 435,000 g for 50 min at 4°C. The supernatant was discarded and the pellet resuspended in the same volume of homogenization buffer containing 0.5% Triton®-X 100, 1% deoxycholate, and 3% SDS. The pellets were triturated with a pipette until resuspended and incubated on a rotator for 1 h at 4°C. The samples were then centrifuged at 435,000 g for 50 min at 4°C and the detergent-soluble supernatant was collected. Protein concentration for membrane (detergent soluble) fraction was determined using the BCA method (Pierce, Rockford, IL). Thirty micrograms of total protein were separated on a Tricine 10-20% gel (Invitrogen) and transferred to a nitrocellulose membrane. Blots were probed with an anti-APP-CTF antibody (Sigma-Aldrich) or anti-Aβ antibody (clone 6E10) followed by incubation with IRDye secondary antibodies (Li-Cor Biosciences).
Male Tg2576 and WT mice were both derived from crosses of male Tg2576 mice and female B6SJLF1 mice (Taconic) and were singly housed upon arrival. […] Some animals were euthanized as described above. For histological studies, a subset of mice were euthanized by CO2 asphyxiation and transcardially perfused with cold 0.9% NaCl. The right hemispheres were immersion fixed in fresh 4% paraformaldehyde in 0.1 M phosphate buffer, pH 7.4 for 1 h, transferred to a 15% sucrose cryoprotectant for 24 h at room temperature, and on the next day, frozen in isopentane chilled by dry ice for 1 min. The left cerebral hemisphere was cut into 2 pieces, weighed, and frozen.

Structure (SMILES): O=C(O)[C@H](CC1CCC1)c1cc(Cl)c(OCC(F)(F)F)c(-c2ccc(C(F)(F)F)cc2)c1 [EVP-0015962, (R)-2-(5-chloro-6-(2,2,2-trifluoroethoxy)-4’-(trifluoromethyl)biphenyl-3-yl)-3-cyclobutylpropanoic acid]
- reduction in total Aβ by Western blot vs control diet (20 mg/kg/day): 42%
- reduction in total Aβ by Western blot vs control diet (60 mg/kg/day): 81%
- levels of full length APP, β-CTF, and α-CTF in brain (20 or 60 mg/kg/day): no increases
